One assay deals with HIV RT polymerase (Human immunodeficiency virus type 1 group M subtype B, UniProt P04585). Nature of the assay: RT polymerase assay. The assay is classed as biochemical, HIV-1.
For assay [1], the target named is HIV RT-associated RNase H (Human immunodeficiency virus type 1 group M subtype B, UniProt P04585). The assay is classed as biochemical, HIV-1.
The next assay addresses HIV integrase (Human immunodeficiency virus type 1 group M subtype B, UniProt P04585). Nature of the assay: HIV IN strand transfer assay. The assay is classed as biochemical.
[2] abbreviates: RNH IC50 HTS-2, HTS-2 substrate, measures DNA 3' end directed cleavage.
Setting [3] is: RNH IC50 HTS-3, HTS-3 substrate, measures RNA 5' end directed cleavage.
Setting [4] is: RT RNase H IC50, Table 4, data with HTS-1 as substrate.

Read-outs that look alike come from different tables or passages of the source. Where only a bound is given, the exact number is not on record here.

The term IC50 denotes the concentration needed to halve the response being measured.

For `O=C(O)c1c[nH]cc(O)c1=O` [10a, 5-Hydroxy-4-oxo-1,4-dihydropyridine-3-carboxylic acid], the IC50 on HIV RT polymerase was above 25 µM; on HIV RT polymerase (read-out: RT Pol IC50, Table 4) it was above 25 µM; in assay [1] (setting [2]) it was above 25 µM; in assay [1] (setting [3]), above 25 µM; in assay [1] (setting [4]) it was above 25 µM; at HIV integrase, above 100 µM. The “RT Pol IC50” value on HIV RT polymerase (Table 1, poly(rA)-oligo(dT)16, [3H]-TTP) is “no inhibitory activity”.
For the compound `O=C(O)c1cn(-c2ccccc2)cc(O)c1=O` [10b, 5-Hydroxy-4-oxo-1-phenyl-1,4-dihydropyridine-3-carboxylic acid], the IC50 against HIV RT polymerase was above 25 µM; on HIV RT polymerase (read-out: RT Pol IC50, Table 4), above 25 µM; in assay [1] (setting [2]) it was above 25 µM; in assay [1] (setting [3]), above 25 µM; in assay [1] (setting [4]) it was above 25 µM.
As for `O=C(O)c1cn(Cc2ccccc2)cc(O)c1=O` [10c, 1-Benzyl-5-hydroxy-4-oxo-1,4-dihydropyridine-3-carboxylic acid], the IC50 at HIV RT polymerase was above 25 µM; on HIV RT polymerase (read-out: RT Pol IC50, Table 4), above 25 µM; in assay [1] (setting [2]), above 25 µM; in assay [1] (setting [3]) it was above 25 µM; in assay [1] (setting [4]) it was above 25 µM.
Take `O=C(O)c1cn(Cc2ccc(F)cc2)cc(O)c1=O` [10d, 1-(4-Fluorobenzyl)-5-hydroxy-4-oxo-1,4-dihydropyridine-3-carboxylic acid]: the IC50 at HIV RT polymerase was above 25 µM; at HIV RT polymerase (read-out: RT Pol IC50, Table 4), above 25 µM; in assay [1] (setting [2]), above 25 µM; in assay [1] (setting [3]), above 25 µM.
As for `CC(c1ccc(F)cc1)n1cc(O)c(=O)c(C(=O)O)c1` (centres unmarked) [10e, 1-(1-(4-Fluorophenyl)ethyl)-5-hydroxy-4-oxo-1,4-dihydropyridine-3-carboxylic acid], the concentration for half-maximal inhibition (IC50) against HIV RT polymerase was above 25 µM; on HIV RT polymerase (read-out: RT Pol IC50, Table 4), above 25 µM; in assay [1] (setting [2]) it was above 25 µM; in assay [1] (setting [3]), above 25 µM.
For `Cc1cc(Cn2cc(O)c(=O)c(C(=O)O)c2)ccc1F` [10f, 1-(4-Fluoro-3-methylbenzyl)-5-hydroxy-4-oxo-1,4-dihydropyridine-3-carboxylic acid], the IC50 was above 25 µM against HIV RT polymerase; above 25 µM at HIV RT polymerase (read-out: RT Pol IC50, Table 4); above 25 µM in assay [1] (setting [2]); above 25 µM in assay [1] (setting [3]); above 100 µM against HIV integrase.
In the case of `O=C(O)c1cn(Cc2ccc(F)cc2F)cc(O)c1=O` [10g, 1-(2,4-Difluorobenzyl)-5-hydroxy-4-oxo-1,4-dihydropyridine-3-carboxylic acid], the IC50 against HIV RT polymerase was above 25 µM; on HIV RT polymerase (read-out: RT Pol IC50, Table 4), above 25 µM; in assay [1] (setting [2]), above 25 µM; in assay [1] (setting [3]), above 25 µM; on HIV integrase, above 100 µM.
On to `O=C(O)c1cn(Cc2ccc(Cl)c(Cl)c2)cc(O)c1=O` [10i, 1-(3,4-Dichlorobenzyl)-5-hydroxy-4-oxo-1,4-dihydropyridine-3-carboxylic acid], for which the IC50 was above 25 µM against HIV RT polymerase; above 25 µM at HIV RT polymerase (read-out: RT Pol IC50, Table 4); above 25 µM in assay [1] (setting [2]); above 25 µM in assay [1] (setting [3]).
For the compound `O=C(O)c1cn(Cc2ccc(Cl)cc2Cl)cc(O)c1=O` [10j, 1-(2,4-Dichlorobenzyl)-5-hydroxy-4-oxo-1,4-dihydropyridine-3-carboxylic acid], the IC50 was above 25 µM on HIV RT polymerase; above 25 µM at HIV RT polymerase (read-out: RT Pol IC50, Table 4); above 25 µM in assay [1] (setting [2]); above 25 µM in assay [1] (setting [3]).
As to `O=C(O)c1cn(Cc2ccc(F)c(Cl)c2)cc(O)c1=O` [10k, 1-(3-Chloro-4-fluorobenzyl)-5-hydroxy-4-oxo-1,4-dihydropyridine-3-carboxylic acid], the IC50 is above 25 µM against HIV RT polymerase; above 25 µM at HIV RT polymerase (read-out: RT Pol IC50, Table 4); above 25 µM in assay [1] (setting [2]); above 25 µM in assay [1] (setting [3]).
In the case of `O=C(O)c1cn(Cc2ccc(Br)cc2)cc(O)c1=O` [10l, 1-(4-Bromobenzyl)-5-hydroxy-4-oxo-1,4-dihydropyridine-3-carboxylic acid], the IC50 at HIV RT polymerase was above 25 µM; on HIV RT polymerase (read-out: RT Pol IC50, Table 4), above 25 µM; in assay [1] (setting [2]) it was above 25 µM; in assay [1] (setting [3]), above 25 µM; in assay [1] (setting [4]) it was above 25 µM; on HIV integrase, above 100 µM.
With `O=C(O)c1cn(Cc2ccncc2)cc(O)c1=O` [10n, 5-Hydroxy-4-oxo-1-(pyridin-4-ylmethyl)-1,4-dihydropyridine-3-carboxylic acid], the IC50 at HIV RT polymerase was above 25 µM; on HIV RT polymerase (read-out: RT Pol IC50, Table 4) it was above 25 µM; in assay [1] (setting [2]), above 25 µM; in assay [1] (setting [3]), above 25 µM; in assay [1] (setting [4]), above 25 µM; against HIV integrase it was above 100 µM.
On to `CS(=O)(=O)c1ccc(Cn2cc(O)c(=O)c(C(=O)O)c2)cc1` [10o, 5-Hydroxy-1-(4-(methylsulfonyl)benzyl)-4-oxo-1,4-dihydropyridine-3-carboxylic acid], for which the IC50 is above 25 µM against HIV RT polymerase; above 25 µM at HIV RT polymerase (read-out: RT Pol IC50, Table 4); above 25 µM in assay [1] (setting [2]); above 25 µM in assay [1] (setting [3]); above 25 µM in assay [1] (setting [4]).
As to `O=C(O)c1ccc(Cn2cc(O)c(=O)c(C(=O)O)c2)cc1` [10p, 1-(4-Carboxybenzyl)-5-hydroxy-4-oxo-1,4-dihydropyridine-3-carboxylic acid], the IC50 on HIV RT polymerase is above 25 µM; at HIV RT polymerase (read-out: RT Pol IC50, Table 4), above 25 µM; in assay [1] (setting [2]) it was above 25 µM; in assay [1] (setting [3]), above 25 µM; in assay [1] (setting [4]), above 25 µM.
On to `NS(=O)(=O)c1ccc(-c2ccc(Cn3cc(O)c(=O)c(C(=O)O)c3)cc2)cc1` [10y, 5-Hydroxy-4-oxo-1-((4'-sulfamoyl-[1,1'-biphenyl]-4-yl)methyl)-1,4-dihydropyridine-3-carboxylic acid], for which the IC50 against HIV integrase was above 100 µM.
Regarding `CCOC(=O)c1cn(Cc2ccc(F)cc2)cc(O)c1=O` [compound 18, Ethyl-1-(4-fluorobenzyl)-5-hydroxy-4-oxo-1,4-dihydropyridine-3-carboxylate], the IC50 at HIV RT polymerase was above 25 µM; on HIV RT polymerase (read-out: RT Pol IC50, Table 4), above 25 µM; in assay [1] (setting [2]) it was above 25 µM; in assay [1] (setting [3]), above 25 µM; in assay [1] (setting [4]), above 25 µM; against HIV integrase, above 100 µM.
For `NC(=O)c1cn(Cc2ccc(F)cc2)cc(O)c1=O` [compound 20, 1-(4-Fluorobenzyl)-5-hydroxy-4-oxo-1,4-dihydropyridine-3-carboxamide], the IC50 against HIV RT polymerase is above 25 µM; on HIV RT polymerase (read-out: RT Pol IC50, Table 4) it was above 25 µM; in assay [1] (setting [2]) it was above 25 µM; in assay [1] (setting [3]), above 25 µM.
